Data: patent publication US20240150293A1, “SPIROCYCLOHEXANE DERIVATIVES, PHARMACEUTICAL COMPOSITIONS CONTAINING THEM AND THEIR USES AS ANTI-APOPTOTIC INHIBITORS” (LES LABORATOIRES SERVIER, priority 2021, published 2024)

Columns and labels:
[1] = test system: NCI-H929 cell lines; assay: In vitro cytotoxicity, CellTiter-Glo (CTG) assay (Example B, Method B); format: cell-based; settings: Homo sapiens, NCI-H929, 48 h, NCI-H929 cells, 48 h incubation, read-out: C50
In short: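 ATP-based luminescence (CellTiter-Glo) after 48 h incubation at 37° C., 5% CO2 gave NCI-H929 viability. Eleven concentrations tested, highest final 30 μM, dispensed acoustically from 10 mM DMSO stocks; C50 defined as concentration reaching 50% viability.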

[2] = target: Cy5-labelled Mcl1 (amino acids 171-321) C286S protein (UniProtKB Q07820) (Homo sapiens (Human), UniProt Q07820, C286S); assay: Inhibition of Mcl-1 by the fluorescence quenching assay (Example A, Method B); format: binding
In short: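 Eleven-point compound series incubated 2 h at room temperature with 1 nM Cy5-tagged protein and quencher-labelled PUMA peptide at 10, 20 or 400 nM in HEPES/NaCl/Tween 20, pH 7.4, 5% DMSO. IC50 for 50% fluorescence increase by 4-parameter fit, then Ki derived (complete cKi or estimated eKi).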

Cy5-labelled Mcl1 (amino acids 171-321) C286S protein, sequence (Q07820 171-321 C286S): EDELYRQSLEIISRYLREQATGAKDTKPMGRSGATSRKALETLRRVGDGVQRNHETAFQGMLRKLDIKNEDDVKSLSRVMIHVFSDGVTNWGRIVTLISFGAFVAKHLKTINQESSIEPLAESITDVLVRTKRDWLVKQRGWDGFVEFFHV

Ki [2] | SMILES | IC50 [1]
0.371 nM | C[C@@H](COc1ccnc2c1[C@H](C)CCC2)C[C@H]1Cc2cc3c(cc2[C@]12CC[C@@](Nc1cccc(Cl)c1)(C(=O)OCOP(=O)(O)O)CC2)OCO3 [Example 952, (phosphonooxy)methyl (1r,4S,6′S)-4-(3-chloroanilino)-6′-[(2R)-2-methyl-3-{[(5R)-5-methyl-5,6,7,8-tetrahydroquinolin-4-yl]oxy}propyl]-6′,7′-dihydro-2′H-spiro[cyclohexane-1,5′-indeno[5,6-d][1,3]dioxole]-4-carboxylate] | 96 nM
6.24 nM | C[C@@H](COc1ccnc2c1[C@H](C)CCC2)C[C@H]1Cc2cc3c(cc2[C@]12CC[C@@](Nc1cccc(Cl)c1)(C(=O)NS(C)(=O)=O)CC2)OCO3 [Example 957, (1r,4S,6′S)-4-(3-chloroanilino)-N-(methanesulfonyl)-6′-[(2R)-2-methyl-3-{[(5R)-5-methyl-5,6,7,8-tetrahydroquinolin-4-yl]oxy}propyl]-6′,7′-dihydro-2′H-spiro[cyclohexane-1,5′-indeno[5,6-d][1,3]dioxole]-4-carboxamide] | 4700 nM
0.0117 nM | C[C@@H](COc1ccnc2c1[C@H](C)CC[C@H]2O)C[C@H]1Cc2cc3c(cc2[C@]12CC[C@@](Nc1cccc(Cl)c1)(C(=O)O)CC2)OCO3 [Example 959, (1r,4S,6′S)-4-(3-chloroanilino)-6′-[(2R)-3-{[(5R,8R)-8-hydroxy-5-methyl-5,6,7,8-tetrahydroquinolin-4-yl]oxy}-2-methylpropyl]-6′,7′-dihydro-2′H-spiro[cyclohexane-1,5′-indeno[5,6-d][1,3]dioxole]-4-carboxylic acid] | 28.7 nM
0.0834 nM | C[C@@H](COc1ccnc2c1[C@H](C)CC[C@H]2C)C[C@H]1Cc2cc3c(cc2[C@]12CC[C@@](Nc1cccc(Cl)c1)(C(=O)O)CC2)OCO3 [Example 960, (1r,4S,6′S)-4-(3-chloroanilino)-6′-[(2R)-3-{[(5R,8R)-5,8-dimethyl-5,6,7,8-tetrahydroquinolin-4-yl]oxy}-2-methylpropyl]-6′,7′-dihydro-2′H-spiro[cyclohexane-1,5′-indeno[5,6-d][1,3]dioxole]-4-carboxylic acid] | 77.5 nM
0.0308 nM | C[C@@H](COc1ccnc2c1[C@H](C)CC[C@H]2F)C[C@H]1Cc2cc3c(cc2[C@]12CC[C@@](Nc1cccc(Cl)c1)(C(=O)O)CC2)OCO3 [Example 961, (1r,4S,6′S)-4-(3-chloroanilino)-6′-[(2R)-3-{[(5R,8R)-8-fluoro-5-methyl-5,6,7,8-tetrahydroquinolin-4-yl]oxy}-2-methylpropyl]-6′,7′-dihydro-2′H-spiro[cyclohexane-1,5′-indeno[5,6-d][1,3]dioxole]-4-carboxylic acid] | 98.8 nM
0.0109 nM | C[C@@H](COc1ccnc2c1[C@H](C)CC[C@H]2O)C[C@H]1Cc2cc3c(cc2[C@]12CC[C@@](Nc1cccc(Cl)c1)(C(=O)O)CC2)OCCO3 [Example 962, (1r,4S,7′S)-4-(3-chloroanilino)-7′-[(2R)-3-{[(5R,8R)-8-hydroxy-5-methyl-5,6,7,8-tetrahydroquinolin-4-yl]oxy}-2-methylpropyl]-2′,3′,7′,8′-tetrahydrospiro[cyclohexane-1,6′-indeno[5,6-b][1,4]dioxine]-4-carboxylic acid] | 42.8 nM
0.0235 nM | C[C@@H](COc1ccnc2c1[C@H](C)CC[C@H]2C)C[C@H]1Cc2cc3c(cc2[C@]12CC[C@@](Nc1cccc(Cl)c1)(C(=O)O)CC2)OCCO3 [Example 963, (1r,4S,7′S)-4-(3-chloroanilino)-7′-[(2R)-3-{[(5R,8R)-5,8-dimethyl-5,6,7,8-tetrahydroquinolin-4-yl]oxy}-2-methylpropyl]-2′,3′,7′,8′-tetrahydrospiro[cyclohexane-1,6′-indeno[5,6-b][1,4]dioxine]-4-carboxylic acid] | 97.3 nM
0.0579 nM | C[C@@H](COc1ccnc2c1[C@H](C)CC[C@H]2F)C[C@H]1Cc2cc3c(cc2[C@]12CC[C@@](Nc1cccc(Cl)c1)(C(=O)O)CC2)OCCO3 [Example 964, (1r,4S,7′S)-4-(3-chloroanilino)-7′-[(2R)-3-{[(5R,8R)-8-fluoro-5-methyl-5,6,7,8-tetrahydroquinolin-4-yl]oxy}-2-methylpropyl]-2′,3′,7′,8′-tetrahydrospiro[cyclohexane-1,6′-indeno[5,6-b][1,4]dioxine]-4-carboxylic acid] | 109 nM
0.0143 nM | C[C@@H](COc1ccnc2c1[C@H](C)CCC2)C[C@H]1Cc2cc3c(cc2[C@]12CC[C@@](Nc1cccc(Cl)c1)(C(=O)O)CC2)OC[C@H](C)O3 [Example 971, (1r,2′S,4S,7′S)-4-(3-chloroanilino)-2′-methyl-7′-[(2R)-2-methyl-3-{[(5R)-5-methyl-5,6,7,8-tetrahydroquinolin-4-yl]oxy}propyl]-2′,3′,7′,8′-tetrahydrospiro[cyclohexane-1,6′-indeno[5,6-b][1,4]dioxine]-4-carboxylic acid] | 41 nM
0.00893 nM | C[C@@H](COc1ccnc2c1[C@H](C)CCC2)C[C@H]1Cc2cc3c(cc2[C@]12CC[C@@](Nc1cccc(Cl)c1)(C(=O)O)CC2)O[C@@H](C)CO3 [Example 972, (1r,3'S,4S,7′S)-4-(3-chloroanilino)-3′-methyl-7′-[(2R)-2-methyl-3-{[(5R)-5-methyl-5,6,7,8-tetrahydroquinolin-4-yl]oxy}propyl]-2′,3′,7′,8′-tetrahydrospiro[cyclohexane-1,6′-indeno[5,6-b][1,4]dioxine]-4-carboxylic acid] | 31 nM
0.0118 nM | C[C@@H](COc1ccnc2c1[C@H](C)CCC2)C[C@H]1Cc2cc3c(cc2[C@]12CC[C@@](Nc1cccc(Cl)c1)(C(=O)O)CC2)O[C@H](C)CO3 [Example 973, (1r,3′R,4S,7′S)-4-(3-chloroanilino)-3′-methyl-7′-[(2R)-2-methyl-3-{[(5R)-5-methyl-5,6,7,8-tetrahydroquinolin-4-yl]oxy}propyl]-2′,3′,7′,8′-tetrahydrospiro[cyclohexane-1,6′-indeno[5,6-b][1,4]dioxine]-4-carboxylic acid] | 34.3 nM
0.023 nM | C[C@@H](COc1ccnc2c1[C@H](C)CCC2)C[C@H]1Cc2cc3c(cc2[C@]12CC[C@@](Nc1cccc(Cl)c1)(C(=O)O)CC2)OC[C@@H](C)O3 [Example 974, (1r,2′R,4S,7′S)-4-(3-chloroanilino)-2′-methyl-7′-[(2R)-2-methyl-3-{[(5R)-5-methyl-5,6,7,8-tetrahydroquinolin-4-yl]oxy}propyl]-2′,3′,7′,8′-tetrahydrospiro[cyclohexane-1,6′-indeno[5,6-b][1,4]dioxine]-4-carboxylic acid] | 60.4 nM
0.0244 nM | C[C@@H](COc1ccnc2c1[C@H](C)CCC2)C[C@H]1Cc2cc3c(cc2[C@]12CC[C@@](Nc1cccc(Cl)c1)(C(=O)O)CC2)O[C@@H](C)[C@H](C)O3 [Example 975, (1r,2′S,3'S,4S,7′S)-4-(3-chloroanilino)-2′,3′-dimethyl-7′-[(2R)-2-methyl-3-{[(5R)-5-methyl-5,6,7,8-tetrahydroquinolin-4-yl]oxy}propyl]-2′,3′,7′,8′-tetrahydrospiro[cyclohexane-1,6′-indeno[5,6-b][1,4]dioxine]-4-carboxylic acid] | 80.2 nM
0.0163 nM | C[C@@H](COc1ccnc2c1[C@H](C)CCC2)C[C@H]1Cc2cc3c(cc2[C@]12CC[C@@](Nc1cccc(Cl)c1)(C(=O)O)CC2)O[C@H](C)[C@@H](C)O3 [Example 976, (1r,2′R,3′R,4S,7′S)-4-(3-chloroanilino)-2′,3′-dimethyl-7′-[(2R)-2-methyl-3-{[(5R)-5-methyl-5,6,7,8-tetrahydroquinolin-4-yl]oxy}propyl]-2′,3′,7′,8′-tetrahydrospiro[cyclohexane-1,6′-indeno[5,6-b][1,4]dioxine]-4-carboxylic acid] | 72.5 nM
0.0231 nM | CC[C@H]1COc2cc3c(cc2O1)[C@]1(CC[C@@](Nc2cccc(Cl)c2)(C(=O)O)CC1)[C@@H](C[C@@H](C)COc1ccnc2c1[C@H](C)CCC2)C3 [Example 977, (1r,3'S,4S,7′S)-4-(3-chloroanilino)-3′-ethyl-7′-[(2R)-2-methyl-3-{[(5R)-5-methyl-5,6,7,8-tetrahydroquinolin-4-yl]oxy}propyl]-2′,3′,7′,8′-tetrahydrospiro[cyclohexane-1,6′-indeno[5,6-b][1,4]dioxine]-4-carboxylic acid] | 56 nM
0.0831 nM | CC[C@H]1COc2cc3c(cc2O1)C[C@H](C[C@@H](C)COc1ccnc2c1[C@H](C)CCC2)[C@]31CC[C@](Nc2cccc(Cl)c2)(C(=O)O)CC1 [Example 978, (1r,2′S,4S,7′S)-4-(3-chloroanilino)-2′-ethyl-7′-[(2R)-2-methyl-3-{[(5R)-5-methyl-5,6,7,8-tetrahydroquinolin-4-yl]oxy}propyl]-2′,3′,7′,8′-tetrahydrospiro[cyclohexane-1,6′-indeno[5,6-b][1,4]dioxine]-4-carboxylic acid] | 164 nM
0.0299 nM | CC[C@@H]1COc2cc3c(cc2O1)[C@]1(CC[C@@](Nc2cccc(Cl)c2)(C(=O)O)CC1)[C@@H](C[C@@H](C)COc1ccnc2c1[C@H](C)CCC2)C3 [Example 979, (1r,3′R,4S,7′S)-4-(3-chloroanilino)-3′-ethyl-7′-[(2R)-2-methyl-3-{[(5R)-5-methyl-5,6,7,8-tetrahydroquinolin-4-yl]oxy}propyl]-2′,3′,7′,8′-tetrahydrospiro[cyclohexane-1,6′-indeno[5,6-b][1,4]dioxine]-4-carboxylic acid] | 67.2 nM
